Reference: article PMC5207512, “Inhibition of Helicobacter pylori and Its Associated Urease by Palmatine: Investigation on the Potential Mechanism” (PLoS ONE, 2017)
Where “and” joins values, the source holds several entries; their conditions need not be identical. Identical values can stand only once. Like-named read-outs stand apart in the source and are kept apart here.

Experiments:
[1] = biological target: T1, H. pylori urease (HPU) (Helicobacter pylori, UniProt P69996); experiment: Urease inhibition test (modified Berthelot method); type: biochemical; details: HPU 0.25 mg/mL; 20 min preincubation 37°C, pH 7.5; read-out: IC50
T1 construct: HPU was prepared as previously described; made in house
T1 sequence (P14916 whole entry): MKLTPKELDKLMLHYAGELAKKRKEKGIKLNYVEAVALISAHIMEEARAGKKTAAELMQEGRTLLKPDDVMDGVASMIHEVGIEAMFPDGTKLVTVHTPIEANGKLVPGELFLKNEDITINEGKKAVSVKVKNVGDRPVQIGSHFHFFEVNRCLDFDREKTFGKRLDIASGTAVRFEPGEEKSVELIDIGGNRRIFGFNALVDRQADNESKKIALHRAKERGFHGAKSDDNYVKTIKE
T1 sequence (P69996 whole entry): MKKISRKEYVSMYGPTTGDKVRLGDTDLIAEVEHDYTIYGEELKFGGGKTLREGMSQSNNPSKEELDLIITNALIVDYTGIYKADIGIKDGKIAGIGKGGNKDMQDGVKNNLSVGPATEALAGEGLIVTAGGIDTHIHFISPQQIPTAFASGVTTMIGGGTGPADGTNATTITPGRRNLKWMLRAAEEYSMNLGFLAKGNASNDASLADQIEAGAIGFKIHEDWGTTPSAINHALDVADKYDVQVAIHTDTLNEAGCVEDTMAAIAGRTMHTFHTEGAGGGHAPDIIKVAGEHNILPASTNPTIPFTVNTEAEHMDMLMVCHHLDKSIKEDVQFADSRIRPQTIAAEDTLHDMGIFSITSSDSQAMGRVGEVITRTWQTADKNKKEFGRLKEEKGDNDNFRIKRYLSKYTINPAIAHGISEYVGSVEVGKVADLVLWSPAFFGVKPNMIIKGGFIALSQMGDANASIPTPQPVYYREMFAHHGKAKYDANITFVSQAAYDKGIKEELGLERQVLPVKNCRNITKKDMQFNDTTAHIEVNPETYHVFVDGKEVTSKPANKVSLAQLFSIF
Experimental: (§1) HPU was prepared as previously described. The standard urease assay mixture included 150 mM urea in 20 mM HEPES buffer (pH 7.5). After addition of small aliquots of enzyme-containing solution of urease, the assay ran for 20 min. The enzymatic activity was evaluated spectrophotometrically by detecting the ammonia concentration at 595 nm according to the modified Berthelot (phenol-hypochlorite) method. Urease activity was estimated with JBU as a standard, the specific activity of HPU was determined to be 17.0 U/mg. One unit of urease activity was defined as 1 μmol of ammonia released per min at 25°C. The amount of protein was determined by commercial Bradford Protein Assay Kit with BSA as a standard. The amount of ammonia released was decided from a standard curve. The activity of uninhibited urease was defined as the control activity of 100%.
(§2) Reaction mixtures comprising 0.25 mg/mL HPU or JBU and different concentrations of Pal or AHA at the volume ratio of 1:1, were incubated at 37°C in 20 mM HEPES buffer (pH 7.5) in the absence of urea. The reactions were initiated by mixing the urease and the inhibitor. The preincubation mixture was withdrawn at 20 min and immediately transferred into the standard assay mixtures for urease residual activity determination. Inhibition rate (%) was calculated following the formula: I % = (1-activity with inhibitors/activity without inhibitors) × 100%. The IC50 was expressed as the concentration of inhibitor that decreased urease activity by 50% and calculated by plotting the percent of inhibition. The experiments were triply performed.

[2] = biological target: T2, jack bean urease (JBU) (Canavalia ensiformis, UniProt P07374); experiment: Urease inhibition test (modified Berthelot method); type: biochemical; details: JBU 0.25 mg/mL; 20 min preincubation 37°C, pH 7.5; read-out: IC50
T2 construct: Urease from jack bean (Canavalia ensiformis, JBU); purchased Sigma-Aldrich (St Louis, MO, USA) type III (catalogue number not given)
T2 sequence (P07374 whole entry, looked up): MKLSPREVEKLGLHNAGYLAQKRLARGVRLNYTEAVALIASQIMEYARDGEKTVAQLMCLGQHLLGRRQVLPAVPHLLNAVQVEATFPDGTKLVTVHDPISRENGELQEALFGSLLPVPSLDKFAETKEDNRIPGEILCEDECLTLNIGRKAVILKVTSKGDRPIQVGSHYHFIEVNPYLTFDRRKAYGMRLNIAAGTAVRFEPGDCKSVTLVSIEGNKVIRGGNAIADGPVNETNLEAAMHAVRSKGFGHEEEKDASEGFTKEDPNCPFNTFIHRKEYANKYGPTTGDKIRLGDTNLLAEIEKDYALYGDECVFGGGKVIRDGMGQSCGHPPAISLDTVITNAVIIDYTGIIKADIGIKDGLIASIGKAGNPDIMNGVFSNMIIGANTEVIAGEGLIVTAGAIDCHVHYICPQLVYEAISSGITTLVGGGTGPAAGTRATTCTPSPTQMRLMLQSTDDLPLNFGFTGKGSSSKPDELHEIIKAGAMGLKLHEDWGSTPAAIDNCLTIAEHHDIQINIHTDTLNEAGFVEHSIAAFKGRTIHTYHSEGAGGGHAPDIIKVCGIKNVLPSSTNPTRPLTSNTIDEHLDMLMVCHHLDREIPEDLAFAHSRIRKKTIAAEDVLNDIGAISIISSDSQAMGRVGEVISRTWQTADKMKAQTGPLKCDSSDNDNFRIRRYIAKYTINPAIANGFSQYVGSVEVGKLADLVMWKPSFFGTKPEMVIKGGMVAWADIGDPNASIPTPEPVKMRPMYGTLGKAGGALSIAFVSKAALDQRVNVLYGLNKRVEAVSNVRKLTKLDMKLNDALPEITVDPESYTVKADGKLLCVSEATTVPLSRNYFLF
Experimental: as §1, §2

[3] = biological target: T1, H. pylori urease (HPU); experiment: biochemical; details: Pal 0.5 mM, thiols 1.25 mM, replicates; for activity at 1250 µM: read-out: Residual urease activity (percent of control), Fig 4A HPU; for Residual urease activity (percent of control): Fig 4A HPU
Experimental: (§3) For the protection with thiols-containing compounds, the mixture consisting of 0.25 mg/mL urease (HPU or JBU), 0.5 mM Pal (for both HPU and JBU) and 1.25 mM thiols (DTT, GSH and L-cys) was incubated for 5, 10, 20, and 40 min at 37°C, respectively. The control sample instead of the protectors contained a proper volume of respective buffer.

[4] = biological target: T2, jack bean urease (JBU); experiment: biochemical; details: Pal 0.5 mM, thiols 1.25 mM, replicates; for activity at 1250 µM: read-out: Residual urease activity (percent of control), Fig 4B JBU; for Residual urease activity (percent of control): Fig 4B JBU
Experimental: as §3

[5] = biological target: T1, H. pylori urease (HPU); experiment: biochemical; type: biochemical; details: thiols 1.25 mM, Pal 0.5 mM, 20+20 min; for activity at 1250 µM: read-out: Residual urease activity (percent of control), Fig 5A HPU; for Residual urease activity (percent of control): Fig 5A HPU
Experimental: (§4) The reaction mixture consisted of 0.25 mg/mL HPU or JBU, 0.5 mM Pal (for both HPU and JBU), and 1.25 mM thiols (DTT, GSH, or L-cys) in 20 mM HEPES buffer (pH 7.5). The components of the incubation mixture were mixed according to three procedures: (1) Urease was added to the mixture after a 20-min co-incubation of Pal with thiol. (2) Pal was added to the mixture after a 20-min co-incubation of urease with thiol. (3) Thiols were added to the mixture after a 20-min co-incubation of urease with Pal. The incubation mixture containing all components was incubated for further 20 min and the activity of urease was determined. The experiments were triply performed.

[6] = biological target: T2, jack bean urease (JBU); experiment: biochemical; type: biochemical; details: thiols 1.25 mM, Pal 0.5 mM, 20+20 min; for activity at 1250 µM: read-out: Residual urease activity (percent of control), Fig 5B JBU; for Residual urease activity (percent of control): Fig 5B JBU
Experimental: as §4

[7] = biological target: T1, H. pylori urease (HPU); experiment: biochemical; type: biochemical; details: for Urease activity: Fig 6A HPU
Experimental: (§5) The reactivation of Pal-inactivated urease was investigated by DTT application. The preincubation mixture consisted of 0.25 mg/mL HPU or JBU and 0.5 mM Pal in 20 mM HEPES buffer (pH 7.5). Then the mixture was further incubated with 1.25 mM DTT after 20 min. The enzymatic activity of urease was determined before and after the addition of DTT. After a while, aliquots were withdrawn and the urease residual activity was determined. The experiments were repeated three times.

[8] = biological target: T2, jack bean urease (JBU); experiment: biochemical; type: biochemical; details: for Urease activity: Fig 6B JBU
Experimental: as §5

[9] = 1.25 mM DTT, control of reactivation assay
[10] = incubation time 5 min, Pal 0.5 mM, DTT 1.25 mM
[11] = incubation time 10 min, Pal 0.5 mM, DTT 1.25 mM
[12] = incubation time 15 min, Pal 0.5 mM, DTT 1.25 mM
[13] = incubation time 20 min, Pal 0.5 mM, DTT 1.25 mM
[14] = incubation time 120 min, DTT added post 20 min

Compound `CC(=O)NO` [AHA, Acetohydroxamic acid] has an IC50 [1] of 70 ± 10 µM and an IC50 [2] of 20 µM.
With `N[C@@H](CCC(=O)N[C@@H](CS)C(=O)NCC(=O)O)C(=O)O` [GSH, glutathione] the activity at 1250 µM ([3]; 5 min, 5 min incubation) was 72.8%, the activity at 1250 µM ([3]; 10 min, 10 min incubation) was 90.4% and the activity at 1250 µM ([3]; 20 min, 20 min incubation) was 94.7%. For the same compound, the activity at 1250 µM ([3]; 40 min, 40 min incubation) was 97.5%, the activity at 1250 µM ([4]; 5 min, 5 min incubation) was 129% and the activity at 1250 µM ([4]; 10 min, 10 min incubation) was 130%. The activity at 1250 µM ([4]; 20 min, 20 min incubation) was 129%, the activity at 1250 µM ([4]; 40 min, 40 min incubation) was 146% and the activity at 1250 µM ([5]; order (Protector+Pal)+urease) was 90.2%. The activity at 1250 µM ([5]; order (urease+Pal)+Protector) was 85.2%, the activity at 1250 µM ([5]; order (urease+Protector)+Pal) was 86.2% and the activity at 1250 µM ([6]; order (Protector+Pal)+urease) was 139%. The activity at 1250 µM ([6]; order (urease+Pal)+Protector) was 140%.
With `O[C@@H](CS)[C@@H](O)CS` (racemic) [DTT, dithiothreithol] the “Residual urease activity (percent of control)” value ([3]; 5 min incubation) was 81.4793% and 82.3893% and 84.6876%, the “Residual urease activity (percent of control)” value ([3]; 10 min incubation) was 90.4823% and 88.7843% and 92.6863% and the “Residual urease activity (percent of control)” value ([3]; 20 min incubation) was 93.6879% and 92.2701% and 94.7893%. For the same compound, the “Residual urease activity (percent of control)” value ([3]; 40 min incubation) was 98.9725% and 95.7934% and 96.4654%, the “Residual urease activity (percent of control)” value ([4]; 5 min incubation) was 93.6533% and 90.8565% and 95.5784% and the “Residual urease activity (percent of control)” value ([4]; 10 min incubation) was 106.756% and 109.689% and 104.897%. The “Residual urease activity (percent of control)” value ([4]; 20 min incubation) was 115.579% and 114.01% and 114.79%, the “Residual urease activity (percent of control)” value ([4]; 40 min incubation) was 142.945% and 126.676% and 135.643% and the “Residual urease activity (percent of control)” value ([5]; order (Protector+Pal)+urease) was 93.1647% and 102.135% and 96.7756%. For the same compound, the “Residual urease activity (percent of control)” value ([5]; order (urease+Pal)+Protector) was 108.215% and 111.632% and 112.117%, the “Residual urease activity (percent of control)” value ([5]; order (urease+Protector)+Pal) was 93.9563% and 102.92% and 98.1268% and the “Residual urease activity (percent of control)” value ([6]; order (Protector+Pal)+urease) was 164.505% and 163.42% and 167.948%. The “Residual urease activity (percent of control)” value ([6]; order (urease+Pal)+Protector) was 156.562% and 141.035% and 115.717%, the “Residual urease activity (percent of control)” value ([6]; order (urease+Protector)+Pal) was 175.198% and 170.348% and 183.958% and the “HPU activity with DTT without Pal” value [7, 9] was “ca. 100%”. The Urease activity [7, 10] was 95.491% and 88.7241% and 81.9292%, the Urease activity [7, 11] was 99.0165% and 99.0712% and 98.1423% and the Urease activity [7, 12] was 99.1346% and 97.2572% and 95.4326%. For the same compound, the Urease activity [7, 13] was 97.9325% and 92.9515% and 87.6438%, the Urease activity ([7]; incubation time 40 min, DTT added post 20 min) was 92.9813% and 91.5048% and 89.9013% and the Urease activity ([7]; incubation time 60 min) was 98.0126% and 92.5129% and 87.7924%. For the same compound, the Urease activity ([7]; incubation time 90 min) was 91.4647% and 89.1159% and 85.7645%, the Urease activity [7, 14] was 96.0166% and 88.9974% and 82.2782% and the “JBU activity with DTT without Pal” value [8, 9] was “ca. 100%”. For the same compound, the Urease activity [8, 10] was 121.742% and 114.981% and 108.343%, the Urease activity [8, 11] was 110.236% and 112.928% and 115.246% and the Urease activity [8, 12] was 113.236% and 116.183% and 119.514%. The Urease activity [8, 13] was 121.141% and 121.265% and 120.209%, the Urease activity ([8]; incubation time 25 min) was 120.019% and 120.291% and 121.459% and the Urease activity ([8]; incubation time 40 min) was 107.983% and 105.801% and 103.225%. For the same compound, the Urease activity ([8]; incubation time 60 min) was 111.088% and 107.798% and 104.326%, the Urease activity ([8]; incubation time 90 min) was 107.125% and 104.437% and 101.122% and the Urease activity [8, 14] was 112.893% and 110.524% and 108.243%.
Compound `N[C@@H](CS)C(=O)O` [L-Cys, L-cysteine] has an activity at 1250 µM ([3]; 5 min, 5 min incubation) of 118%, an activity at 1250 µM ([3]; 10 min, 10 min incubation) of 107% and an activity at 1250 µM ([3]; 20 min, 20 min incubation) of 109%. It also gave an activity at 1250 µM ([3]; 40 min, 40 min incubation) of 112%, an activity at 1250 µM ([4]; 5 min, 5 min incubation) of 102% and an activity at 1250 µM ([4]; 10 min, 10 min incubation) of 109%. It also gave an activity at 1250 µM ([4]; 20 min, 20 min incubation) of 117%, an activity at 1250 µM ([4]; 40 min, 40 min incubation) of 150% and an activity at 1250 µM ([5]; order (Protector+Pal)+urease) of 83.2%. The activity at 1250 µM ([5]; order (urease+Pal)+Protector) was 82.4%, the activity at 1250 µM ([5]; order (urease+Protector)+Pal) was 105% and the activity at 1250 µM ([6]; order (Protector+Pal)+urease) was 147%. It also gave an activity at 1250 µM ([6]; order (urease+Protector)+Pal) of 146%.
